Experimental findings from US7585998B2 (Bayer CropScience AG, priority 2003, dated 2009) are described below.

Structures are written as SMILES.

The nature of this series: log P determination by HPLC on a reverse phase column (C 18), EEC Directive 79/831 Annex V.A8. In kind it is physicochemical. As to conditions: pH 2.3, 0.1% aqueous phosphoric acid and acetonitrile as eluents, linear gradient 10% to 90% acetonitrile, 43° C. The method, then: The determination of the log P values reported in the above tables and preparation examples is carried out in compliance with EEC Directive 79/831 Annex V.A8 by HPLC (High Performance Liquid Chromatography) on a reverse phase column (C 18). Temperature: 43° C. The determination is carried out in the acid region at pH 2.3 with 0.1% aqueous phosphoric acid and acetonitrile as eluents; linear gradient of 10% acetonitrile to 90% acetonitrile. Calibration is carried out with unbranched alkan-2-ones (with 3 to 16 carbon atoms) the log P values of which are known (determination of the log P values on the basis of retention times by linear interpolation between two sequential alkanones).

The chromatographic logP is lipophilicity estimated from chromatographic retention.

In turn, `CCOC(=O)c1sc(C)nc1C(F)F` came in with a chromatographic logP of 2.18.
